Measured values published in US20220370385A1, “COMPOSITIONS FOR USE IN INHIBITING SRC KINASE AND TREATING AND PREVENTING ASSOCIATED DISORDERS” (Enzene Biosciences Ltd., priority 2019, published 2022).

Tested on: MDA-MB-468 cells
Experiment: MDA-MB-468 cell viability, CellTiter-Glo, 24 hrs
Assay type: cell-based, human
Details: 24 hrs incubation
Experimental: MDA-MB-468 cells, isolated from a pleural effusion of a patient with metastatic adenocarcinoma of the breast, is a triple negative breast cancer (TNBC) cell line. The IC 50 value of E05 or lapatinib (Sigma) or the structural analogues of E05 were tested in this cell line.
Briefly, MDA-MB-468 cells (ATCC #HTB-32) were seeded with a density of 5,000 cells per well in a 96 well white plate (Costar Cat #3917) in DMEM media supplemented with 10% FBS (assay medium). The plates were incubated at 37° C., 5% CO2 for 24 hr. E05 and analogues were diluted in the assay medium and added to the respective wells of the assay plate. The plates were further incubated at 37° C., 5% CO2 for 24 hrs. After the incubation, the cell viability was assessed using CellTiter-Glo® and the plates were read for luminescence using Cytation 5 (Biotek). The relative luminescence unit (RLU) obtained was plotted against the concentration and EC50 values were estimated using Graphpad Prism 5 software (FIG. 15 and Table 2).

Row | Activity (EC50) | SMILES
1 | Inactive | O=C(O)CCc1ccc(O)cc1O [E05_B, 3-(2,4-Hydroxyphenyl)-propionic acid]
2 | Inactive | O=C(O)CCc1cccc(O)c1 [E05_C, 3-(3-Hydoxyphenyl)-propionic acid]
